Measurements published in patent publication US6710045B2, “Heterocyclic fluoroalkenyl thioethers and the use thereof as pesticides (IV)” (priority 2003, dated 2004).

Tests used:
[1] = tested on: larvae of the mustard beetle (Phaedon cochleariae); assay: Phaedon larvae test (dipped cabbage leaves); settings: active compound concentration 0.1%; after 7 days
[2] = tested on: Meloidogyne incognita egg/larvae; assay: Meloidogyne test (gall formation on lettuce roots); assay type: in vivo; settings: active compound concentration 20 ppm; after 14 days
Experimental: Containers are filled with sand, solution of active compound, Meloidogyne incognita egg/larvae suspension and lettuce seeds. The lettuce seeds germinate and the plants develop. On the roots, galls are formed.
After the desired period of time, the nematicidal action is determined in % using gall formation as a measure. 100% means that no galls were found; 0% means that the number of galls on the treated plants corresponds to that of the untreated control.

[3] = logP determination by HPLC (EEC Directive 79/831 Annex V.A8); assay type: physicochemical; settings: for chromatographic logP: pH 2.3, HPLC gradient method, acetonitrile/0.1% aqueous phosphoric acid
Experimental: The logP values were determined in accordance with EEC Directive 79/831 Annex V.A8 by HPLC (gradient method, acetonitrile/0.1% aqueous phosphoric acid).

SMILES	kill [1] [%]	nematicidal action (activity) using gall formation as a measure [2] [%]	chromatographic logP [3]	logP (pH 2) [3]
FC(F)=C(F)CCCCSc1nc2ccccc2s1 [Example 1, 2-(6,6,5-trifluorohex-5-enylthio)-benzothiazole]	100	100	4.83	–
O=S(=O)(CCCCC(F)=C(F)F)c1nc2ccccc2s1 [Example 3, 2-(6,6,5-trifluorohex-5-enylsulphonyl)-benzothiazole]	–	90	3.36	–
FC(F)=C(F)CCCCSc1ccc(-c2ccccc2Cl)nn1 [Example 16]	–	–	–	4.37
FC(F)=C(F)CCCCSc1nc2cc(SC(F)(F)F)ccc2o1 [Example 17]	–	–	–	5.62
